Assay type in all cases: cell-based
One experiment concerns senescent NHDF cells. The experiment is described as follows: Senescence assay, viability of senescent NHDF cells. The note with it: Homo sapiens; chemotherapy-induced senescent NHDF cells, 24-72 hours with compound, viability by CellTiter-Glo or XTT; read-out: NHDF_SEN IC50 (Absolute IC50 average). As for the experimental part: (§1) Cells were maintained in DMEM media (high glucose, 4 mM L-glutamine, no sodium pyruvate) supplemented with 10% fetal bovine serum in a humidified incubator at 37° C. with 5% carbon dioxide. Senescence was induced via treatment with a sublethal concentration of chemotherapy (bleomycin, gemcitabine, doxorubicin, 5-fluorouridine), followed by a rest period without chemotherapy similarly to what is reported by others in the field (e.g., Aoshiba et al., 2003 Eur Respir J 22:436-443). Senescence was qualified by low EdU (5-ethynyl-2′-deoxyuridine) incorporation and high SA-β-Gal (senescence-associated beta-galactosidase) staining compared to proliferating untreated cells. Senescent cells were plated into 96-well plates at a density of 5-15,000 cells/well. The next day, compounds were added in duplicate across ten different concentrations spanning roughly four Log 10 units. Cells were incubated with the compounds for 24-72 hours, at which point viability is quantified using CellTiter-Glo (Promega) or XTT (R&D Systems). The viability for treated cells was determined relative to untreated control cells. The log of the compound concentration vs. normalized mean viability was a fit to a four parameters Hill function with variable slope. The bottom was constrained to be greater than zero. The X mean value for Y=50 interpolated to determine the absolute IC50. […]
On the technique in general: Cellular ATP, detected with luciferase, serves as a proxy for viable cell number.

A further experiment concerns senescent A549 cells. The experiment in a line: Senescence assay, viability of senescent A549 cells. The note with it: Homo sapiens; chemotherapy-induced senescent A549 cells, 24-72 hours with compound, viability by CellTiter-Glo or XTT; read-out: A549_SEN IC50 (Absolute IC50 average). As for the experimental part:
as §1

In the next experiment the test system is senescent HEPG2 cells. The experiment is described as follows: Senescence assay, viability of senescent HEPG2 cells. The note with it: Homo sapiens; chemotherapy-induced senescent HEPG2 cells, 24-72 hours with compound, viability by CellTiter-Glo or XTT; read-out: HEPG2_SEN IC50 (Absolute IC50 average). As for the experimental part: as §1
The subject of the next experiment is senescent IMR90 cells. The experiment in a line: Senescence assay, viability of senescent IMR90 cells. Particulars: Homo sapiens, IMR-90; chemotherapy-induced senescent IMR90 cells, 24-72 hours with compound, viability by CellTiter-Glo or XTT; read-out: IMR90_SEN IC50 (Absolute IC50 average). As for the experimental part: as §1

The term IC50 denotes the point on the concentration scale where inhibition reaches its midpoint. Take `C#CC(F)(F)[C@]1(O)CC[C@H]2[C@@H]3CCC4=CC(=O)CCC4=C3[C@@H](c3ccc(O)cc3)C[C@@]21C` [Compound 1, (1S,3aS,3bS,10R,11aS)-1-(1,1-difluoroprop-2-yn-1-yl)-1-hydroxy-10-(4-hydroxyphenyl)-11a-methyl-2H,3H,3aH,3bH,4H,5H,8H,9H,10H,11H-cyclopenta[a]phenanthren-7-one]: the concentration for half-maximal inhibition (IC50) was 100 to 1000 nM with senescent NHDF cells, 1000 to 10000 nM in the experiment with senescent A549 cells, 100 to 1000 nM in the experiment on senescent HEPG2 cells and 100 to 1000 nM in the experiment on senescent IMR90 cells.

Take `C#CC(=O)[C@]1(O)CC[C@H]2[C@@H]3CCC4=CC(=O)CCC4=C3[C@@H](c3ccc(C4CC4)cc3)C[C@@]21C` [Compound 2, (8S,11R,13S,14S,17S)-11-(4-cyclopropylphenyl)-17-hydroxy-13-methyl-17-propioloyl-1,2,6,7,8,11,12,13,14,15,16,17-dodecahydro-3H-cyclopenta[a]phenanthren-3-one]: the concentration for half-maximal inhibition (IC50) with senescent NHDF cells was 1000 to 10000 nM.

The record behind these values is patent publication US20250296951A1, “GPX4 Inhibitors and Senolytic Compounds and Uses Thereof” (Rubedo Life Sciences, Inc., priority 2024, published 2025).
